The values below come from patent publication US9796711B2, “Substituted pyrazolo[3,4-b]pyridin-6-carboxylic acids and method of use” (AbbVie S.àr.l., priority 2015, dated 2017).

In assay [1] the target is T1, ΔF508-CFTR (Homo sapiens, UniProt P13569, DEL508-508).
T1 construct: host or cells: CFBE41o-, doxycycline-inducible
The assay is described as follows: CFTR cell surface levels using HRP-tagged ΔF508-CFTR expressing CFBE cells, in the presence of a co-corrector. Format: cell-based. Conditions: HRP-tagged ΔF508-CFTR expressing CFBE cells, in the presence of 3 μM co-corrector; for pEC50: read-out: EC50. The gist of the method:
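Cells were seeded with 0.5 μg/mL doxycycline and held 68 h at 37 °C. Test compounds plus 3 μM co-corrector (final 0.1% DMSO) were then added for 20 h at 33 °C. Washed cells received HRP substrate, and luminescence was normalized between DMSO and 3 μM co-corrector controls.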

Assay [2] addresses T1, ΔF508-CFTR. In words: CFTR cell surface levels using HRP-tagged ΔF508-CFTR expressing CFBE cells, intrinsic corrector capacity. Format: cell-based. Conditions: for pEC50: read-out: EC50. The gist of the method:
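Here the cells express ΔF508-CFTR with horseradish peroxidase inserted in extracellular loop 4, so only rescued channel at the surface gives luminescent signal. Compounds act on their own, 20 h at the reduced temperature of 33 °C; values are percent activity relative to DMSO and a 3 μM corrector.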

Setting [3] is: HRP-tagged ΔF508-CFTR CFBE41o- cells, compounds alone (intrinsic corrector capacity), 20 hours at 33° C., positive control 3 μM corrector.
The mark [4] stands for this setting: HRP-tagged ΔF508-CFTR CFBE41o- cells, compounds alone (intrinsic corrector capacity), 20 hours at 33° C.
Where [5] appears, read: HRP-tagged ΔF508-CFTR expressing CFBE cells, intrinsic corrector capacity (no co-corrector), 33° C., 20 hours.

For orientation: pEC50 means −log10 of the EC50, conventionally taken in molar units.

pEC50: −log10 of the molar value.

T1 sequence (P13569 with tags, fused parts or gaps DEL508-508): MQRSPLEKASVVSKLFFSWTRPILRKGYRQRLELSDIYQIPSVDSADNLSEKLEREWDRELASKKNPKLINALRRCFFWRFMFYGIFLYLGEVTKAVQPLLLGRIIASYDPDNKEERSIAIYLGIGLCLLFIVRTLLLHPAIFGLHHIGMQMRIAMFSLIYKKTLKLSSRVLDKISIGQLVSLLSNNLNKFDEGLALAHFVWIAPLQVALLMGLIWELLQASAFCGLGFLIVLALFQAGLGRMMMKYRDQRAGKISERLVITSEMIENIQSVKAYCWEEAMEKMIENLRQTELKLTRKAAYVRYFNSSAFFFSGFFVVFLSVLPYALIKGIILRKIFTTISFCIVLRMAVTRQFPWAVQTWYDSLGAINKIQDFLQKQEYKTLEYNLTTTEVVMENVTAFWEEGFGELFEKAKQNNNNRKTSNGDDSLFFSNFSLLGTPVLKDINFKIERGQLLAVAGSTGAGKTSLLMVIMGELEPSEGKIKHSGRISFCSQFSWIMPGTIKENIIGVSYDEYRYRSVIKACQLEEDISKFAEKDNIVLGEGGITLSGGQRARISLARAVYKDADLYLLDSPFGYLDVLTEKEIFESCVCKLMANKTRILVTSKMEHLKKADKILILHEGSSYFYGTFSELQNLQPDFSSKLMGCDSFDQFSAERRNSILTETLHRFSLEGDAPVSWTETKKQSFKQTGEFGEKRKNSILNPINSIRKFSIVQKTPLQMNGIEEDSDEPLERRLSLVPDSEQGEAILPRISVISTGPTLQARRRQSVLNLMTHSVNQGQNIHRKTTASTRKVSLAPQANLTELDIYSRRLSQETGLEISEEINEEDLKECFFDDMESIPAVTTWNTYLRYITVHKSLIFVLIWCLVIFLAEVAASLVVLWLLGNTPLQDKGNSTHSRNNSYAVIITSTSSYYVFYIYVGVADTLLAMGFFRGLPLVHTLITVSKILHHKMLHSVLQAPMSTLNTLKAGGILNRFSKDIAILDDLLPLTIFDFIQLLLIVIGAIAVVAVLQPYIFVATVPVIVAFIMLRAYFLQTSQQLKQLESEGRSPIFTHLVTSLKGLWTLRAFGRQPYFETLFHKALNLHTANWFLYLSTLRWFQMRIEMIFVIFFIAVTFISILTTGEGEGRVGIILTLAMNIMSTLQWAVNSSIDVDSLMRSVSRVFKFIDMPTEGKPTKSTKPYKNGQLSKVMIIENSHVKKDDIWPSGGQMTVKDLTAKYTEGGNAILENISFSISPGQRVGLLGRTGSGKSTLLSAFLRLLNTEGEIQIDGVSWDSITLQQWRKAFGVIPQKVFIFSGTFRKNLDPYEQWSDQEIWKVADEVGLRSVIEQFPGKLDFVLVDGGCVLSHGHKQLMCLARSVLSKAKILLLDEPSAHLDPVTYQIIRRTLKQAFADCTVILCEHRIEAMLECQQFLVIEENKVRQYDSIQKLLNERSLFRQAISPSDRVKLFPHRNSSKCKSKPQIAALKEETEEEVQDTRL

In the case of `Cc1nn(-c2ccccc2)c2nc(C(=O)O)cc(OCC3(F)CCN(C)C3)c12` (stereo not drawn) [compound 378, 4-[(3-fluoro-1-methylpyrrolidin-3-yl)methoxy]-3-methyl-1-phenyl-1H-pyrazolo[3,4-b]pyridine-6-carboxylic acid], the “% Activation” value at ΔF508-CFTR [1] is recorded as 140.5%; at ΔF508-CFTR [2] (setting [3]), 14.56%. Further, the values for the pEC50 at ΔF508-CFTR [1] and on ΔF508-CFTR [2] (setting [4]) were 5.48 and 5.30, respectively.
In the case of `COC(=O)N1CCC(n2nc(C(C)C)c3c(-c4ccc(N5CCOCC5)cc4)cc(C(=O)O)nc32)C1` (stereo not drawn) [compound 142, 1-[1-(methoxycarbonyl)pyrrolidin-3-yl]-4-[4-(morpholin-4-yl)phenyl]-3-(propan-2-yl)-1H-pyrazolo[3,4-b]pyridine-6-carboxylic acid], the “% Activation” value on ΔF508-CFTR [1] amounted to 135.2%; on ΔF508-CFTR [2] (setting [3]), 17.605%. In addition, the pEC50 on ΔF508-CFTR [1] is 5.26; at ΔF508-CFTR [2] (setting [4]), less than 5.00.
For `O=C(O)c1cc(N2CCC(N3CCCC(C(F)(F)F)C3)CC2)c2c(C3CCC3)nn(-c3ccc(F)cc3)c2n1` (stereo not drawn) [compound 874, 3-cyclobutyl-1-(4-fluorophenyl)-4-[3-(trifluoromethyl)[1,4′-bipiperidin]-1′-yl]-1H-pyrazolo[3,4-b]pyridine-6-carboxylic acid], the “% Activation” value amounted to 608.35% at ΔF508-CFTR [1] and 330.7% at ΔF508-CFTR [2] (setting [5]). The pEC50 was 7.08 on ΔF508-CFTR [1] and 6.77 on ΔF508-CFTR [2] (setting [5]).
As to `CC(C)c1nn(-c2cccc(OC(F)(F)F)c2)c2nc(C(=O)O)cc(-c3ccc(N4CCOCC4)cc3)c12` [compound 269, 4-[4-(morpholin-4-yl)phenyl]-3-(propan-2-yl)-1-[3-(trifluoromethoxy)phenyl]-1H-pyrazolo[3,4-b]pyridine-6-carboxylic acid], the “% Activation” value came to 452.33% on ΔF508-CFTR [1] and 264.3% on ΔF508-CFTR [2] (setting [3]). In addition, the pEC50 on ΔF508-CFTR [1] is 6.41; on ΔF508-CFTR [2] (setting [4]), 6.24.
For the compound `Cc1nn(-c2cccc(C(F)(F)F)c2)c2nc(C(=O)O)cc(-c3ccc(N4CCOCC4)cc3)c12` [compound 22, 3-methyl-4-[4-(morpholin-4-yl)phenyl]-1-[3-(trifluoromethyl)phenyl]-1H-pyrazolo[3,4-b]pyridine-6-carboxylic acid], the “% Activation” value is 310.95% on ΔF508-CFTR [1] and 131.28% at ΔF508-CFTR [2] (setting [3]). The pEC50 at ΔF508-CFTR [1] and on ΔF508-CFTR [2] (setting [4]) was 6.00 each time.
On to `O=C(O)c1cc(N2CCCOCC2)c2c(C3CCC3)nn(-c3ccccc3)c2n1` [compound 545, 3-cyclobutyl-4-(1,4-oxazepan-4-yl)-1-phenyl-1H-pyrazolo[3,4-b]pyridine-6-carboxylic acid], for which the results for the “% Activation” value on ΔF508-CFTR [1] and on ΔF508-CFTR [2] (setting [5]) were 247.05% and 109.4%, respectively. Moreover, the pEC50 was 6.25 on ΔF508-CFTR [1] and 5.94 at ΔF508-CFTR [2] (setting [5]).
On to `CC1(COc2cc(C(=O)O)nc3c2c(C2CCC2)nn3-c2ccccc2)COCOC1` [compound 622, 3-cyclobutyl-4-[(5-methyl-1,3-dioxan-5-yl)methoxy]-1-phenyl-1H-pyrazolo[3,4-b]pyridine-6-carboxylic acid], for which, on ΔF508-CFTR [1], the “% Activation” value is given as 275.2% and the pEC50 was 7.17. Also, at ΔF508-CFTR [2] (setting [5]), the “% Activation” value amounted to 124.5% and the negative logarithm of the EC50 (pEC50) was 6.78.
Consider `COCC(C)N1CCN(c2cc(C(=O)O)nc3c2c(C(C)C)nn3-c2ccc(F)cc2)CC1` (stereo not drawn) [compound 793, 1-(4-fluorophenyl)-4-[4-(1-methoxypropan-2-yl)piperazin-1-yl]-3-(propan-2-yl)-1H-pyrazolo[3,4-b]pyridine-6-carboxylic acid], for which the “% Activation” value at ΔF508-CFTR [1] was determined as 363.5%; on ΔF508-CFTR [2] (setting [5]), 157.7%. The pEC50 at ΔF508-CFTR [1] and on ΔF508-CFTR [2] (setting [5]) was 5.78 in each case.
As to `Cc1nn(-c2ccccc2)c2nc(C(=O)O)cc(N3CC[C@@H](F)C3)c12` [compound 298, 4-[(3R)-3-fluoropyrrolidin-1-yl]-3-methyl-1-phenyl-1H-pyrazolo[3,4-b]pyridine-6-carboxylic acid], the “% Activation” value was determined as 206.45% at ΔF508-CFTR [1] and 52.345% on ΔF508-CFTR [2] (setting [3]). Further, the pEC50 is 5.61 on ΔF508-CFTR [1] and 5.60 at ΔF508-CFTR [2] (setting [4]).
